Assays:
HDAC8 = HDAC8 (Homo sapiens (Human), UniProt Q9BY41); settings: read-out: HDAC8 IC50
HDAC1 = HDAC1 (Homo sapiens (Human), UniProt Q13547); settings: read-out: HDAC1 IC50
HDAC1, sequence (Q13547 whole entry): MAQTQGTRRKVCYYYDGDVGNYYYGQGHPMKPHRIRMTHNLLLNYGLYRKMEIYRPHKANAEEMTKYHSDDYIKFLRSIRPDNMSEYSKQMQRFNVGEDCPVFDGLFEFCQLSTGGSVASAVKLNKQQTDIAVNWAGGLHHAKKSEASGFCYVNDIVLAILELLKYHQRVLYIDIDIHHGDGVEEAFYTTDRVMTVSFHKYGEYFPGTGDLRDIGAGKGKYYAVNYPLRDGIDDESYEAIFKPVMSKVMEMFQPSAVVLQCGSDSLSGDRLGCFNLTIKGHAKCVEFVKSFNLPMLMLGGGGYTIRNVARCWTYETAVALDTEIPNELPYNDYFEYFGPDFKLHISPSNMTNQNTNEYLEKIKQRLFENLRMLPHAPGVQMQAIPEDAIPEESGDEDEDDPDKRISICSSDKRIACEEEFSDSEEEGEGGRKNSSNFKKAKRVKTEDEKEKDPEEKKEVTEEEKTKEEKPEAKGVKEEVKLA

HDAC8, sequence (Q9BY41 whole entry): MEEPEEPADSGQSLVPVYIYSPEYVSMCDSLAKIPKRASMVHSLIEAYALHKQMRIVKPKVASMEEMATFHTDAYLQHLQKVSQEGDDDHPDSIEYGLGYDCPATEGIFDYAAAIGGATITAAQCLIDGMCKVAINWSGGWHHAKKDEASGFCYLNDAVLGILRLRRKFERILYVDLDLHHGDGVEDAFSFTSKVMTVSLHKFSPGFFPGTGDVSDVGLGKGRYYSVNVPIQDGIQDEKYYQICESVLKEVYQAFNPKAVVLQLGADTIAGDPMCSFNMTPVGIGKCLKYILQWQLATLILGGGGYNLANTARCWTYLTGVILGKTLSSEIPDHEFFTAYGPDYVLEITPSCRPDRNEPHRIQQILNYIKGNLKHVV

Row | SMILES | IC50 (HDAC8) [µM] | IC50 (HDAC1) [µM]
1 | O=C(Cn1ncccc1=O)N(Cc1ccc(-c2noc(C(F)(F)F)n2)cc1)c1cccc(C(F)(F)F)c1 [Example 70, 2-(6-oxopyridazin-1(6H)-yl)-N-(4-(5-(trifluoromethyl)-1,2,4-oxadiazol-3-yl)benzyl)-N-(3-(trifluoromethyl)phenyl)acetamide] | 2.2 | 0.96
2 | Cc1ccc(NCc2ccc(-c3noc(C(F)(F)F)n3)cn2)nn1 [Example 362, 6-methyl-N-({5-[5-(trifluoromethyl)-1,2,4-oxadiazol-3-yl]pyridin-2-yl}methyl)pyridazin-3-amine] | 2.8 | 1.4
3 | O=C(CCn1cncn1)N(Cc1ccc(-c2noc(C(F)(F)F)n2)cc1)c1cccc(C(F)(F)F)c1 [Example 89, 3-(1H-1,2,4-triazol-1-yl)-N-(4-(5-(trifluoromethyl)-1,2,4-oxadiazol-3-yl)benzyl)-N-(3-(trifluoromethyl)phenyl)propanamide] | 2 | 1.1
4 | FC(F)(F)c1nc(-c2ccc(CNc3cncnc3)nc2)no1 [Example 369, N-({5-[5-(trifluoromethyl)-1,2,4-oxadiazol-3-yl]pyridin-2-yl}methyl)pyrimidin-5-amine] | 0.96 | 0.93
5 | O=C(Cn1cnc2ccccc21)N(Cc1ccc(-c2noc(C(F)(F)F)n2)cc1)c1cccc(C(F)(F)F)c1 [Example 98, 2-(1H-benzo[d]imidazol-1-yl)-N-(4-(5-(trifluoromethyl)-1,2,4-oxadiazol-3-yl)benzyl)-N-(3-(trifluoromethyl)phenyl)acetamide] | 2.3 | 4.2
6 | Cc1cc(CC(=O)N(Cc2ccc(-c3noc(C(F)(F)F)n3)cn2)c2cccc(F)c2)on1 [Example 59, N-(3-fluorophenyl)-2-(3-methylisoxazol-5-yl)-N-((5-(5-(trifluoromethyl)-1,2,4-oxadiazol-3-yl)pyridin-2-yl)methyl)acetamide] | 1.5 | 0.21
7 | O=C(C1CCN(C2CC2)CC1)N(Cc1ccc(-c2noc(C(F)(F)F)n2)cn1)c1cccc(F)c1 [Example 406, 1-cyclopropyl-N-(3-fluorophenyl)-N-({5-[5-(trifluoromethyl)-1,2,4-oxadiazol-3-yl]pyridin-2-yl}methyl)piperidine-4-carboxamide] | 1.8 | 0.27
8 | Cc1ccc(NCc2ccc(-c3noc(C(F)(F)F)n3)cn2)cn1 [Example 359, 6-methyl-N-({5-[5-(trifluoromethyl)-1,2,4-oxadiazol-3-yl]pyridin-2-yl}methyl)pyridin-3-amine] | 1.8 | 0.43
9 | O=c1ccc2ccccc2n1Cc1ncc(-c2noc(C(F)(F)F)n2)cn1 [Example 474, 1-({5-[5-(trifluoromethyl)-1,2,4-oxadiazol-3-yl]pyrimidin-2-yl}methyl)quinolin-2(1H)-one] | 6 | 0.22
10 | FC(F)(F)c1nc(-c2ccc(CNc3ccccn3)cc2)no1 [Example 382, N-{4-[5-(trifluoromethyl)-1,2,4-oxadiazol-3-yl]benzyl}pyridin-2-amine] | 2.1 | 1.6
11 | OCc1ccnc(NCc2ccc(-c3noc(C(F)(F)F)n3)cc2)n1 [Example 418, [2-({4-[5-(trifluoromethyl)-1,2,4-oxadiazol-3-yl]benzyl}amino)pyrimidin-4-yl]methanol] | 3.2 | 3.6
12 | FC(F)(F)c1nc(-c2ccc(N[C@@H]3CCCC[C@H]3c3ccccc3)nc2)no1 [Example 26, N-((1R,2S)-2-Phenylcyclohexyl)-5-(5-(trifluoromethyl)-1,2,4-oxadiazol-3-yl)pyridin-2-amine] | 26 | 4.6
13 | FC(F)(F)c1nc(-c2ccc(CNC3CCN(c4ccccn4)CC3)nc2)no1 [Example 379, 1-(pyridin-2-yl)-N-({5-[5-(trifluoromethyl)-1,2,4-oxadiazol-3-yl]pyridin-2-yl}methyl)piperidin-4-amine] | 7.7 | 1.9
14 | FC(F)(F)c1nc(-c2cnc(COc3ccc4ccccc4n3)nc2)no1 [Example 473, 2-({5-[5-(trifluoromethyl)-1,2,4-oxadiazol-3-yl]pyrimidin-2-yl}methoxy)quinoline] | 45 | 0.16
15 | CC(C)N1CCC(NCc2ccc(-c3noc(C(F)(F)F)n3)cn2)C1=O (racemic) [Example 435, 1-(1-methylethyl)-3-[({5-[5-(trifluoromethyl)-1,2,4-oxadiazol-3-yl]pyridin-2-yl}methyl)amino]pyrrolidin-2-one] | 4.6 | 4.4
16 | CN1CCC(C(=O)N(Cc2ccc(-c3noc(C(F)(F)F)n3)cn2)c2cccc(F)c2)C1 (racemic) [Example 403, N-(3-fluorophenyl)-1-methyl-N-({5-[5-(trifluoromethyl)-1,2,4-oxadiazol-3-yl]pyridin-2-yl}methyl)pyrrolidine-3-carboxamide] | 2 | 0.25

Row | SMILES | IC50 (HDAC8) [µM] | IC50 (HDAC1) [µM]
17 | CC1(C)CCCN1C(=O)[C@@H]1CCC(=O)N1c1cc(F)c(-c2noc(C(F)(F)F)n2)cc1F [Example 339, (5S)-1-{2,5-difluoro-4-[5-(trifluoromethyl)-1,2,4-oxadiazol-3-yl]phenyl}-5-[(2,2-dimethylpyrrolidin-1-yl)carbonyl]pyrrolidin-2-one] | 45 | 13
18 | NC(=O)c1ccccc1NCc1ccc(-c2noc(C(F)(F)F)n2)cn1 [Example 174, 2-(((5-(5-(Trifluoromethyl)-1,2,4-oxadiazol-3-yl)pyridin-2-yl)methyl)amino)benzamide] | 0.7 | 0.3
19 | Cc1noc([C@H]2CCCCN2c2cc(F)c(-c3noc(C(F)(F)F)n3)cc2F)n1 [Example 121, (R)-3-(2,5-difluoro-4-(2-(3-methyl-1,2,4-oxadiazol-5-yl)piperidin-1-yl)phenyl)-5-(trifluoromethyl)-1,2,4-oxadiazole] | 29 | 26
20 | Cn1nc(C(=O)N(Cc2ccc(-c3noc(C(F)(F)F)n3)cc2)c2cccc(C(F)(F)F)c2)ccc1=O [Example 88, 1-methyl-6-oxo-N-(4-(5-(trifluoromethyl)-1,2,4-oxadiazol-3-yl)benzyl)-N-(3-(trifluoromethyl)phenyl)-1,6-dihydropyridazine-3-carboxamide] | 3 | 0.94
21 | O=C(CC1COCCO1)N(Cc1ccc(-c2noc(C(F)(F)F)n2)cc1)c1cccc(C(F)(F)F)c1 (racemic) [Example 95, 2-(1,4-dioxan-2-yl)-N-(4-(5-(trifluoromethyl)-1,2,4-oxadiazol-3-yl)benzyl)-N-(3-(trifluoromethyl)phenyl)acetamide] | 2 | 1.3
22 | NC(=O)c1ncccc1NCc1ccc(-c2noc(C(F)(F)F)n2)cn1 [Example 445, 3-[({5-[5-(trifluoromethyl)-1,2,4-oxadiazol-3-yl]pyridin-2-yl}methyl)amino]pyridine-2-carboxamide] | 2.2 | 0.85
23 | CC(C(=O)N(Cc1ccc(-c2noc(C(F)(F)F)n2)cn1)c1cccc(F)c1)n1cccn1 (racemic) [Example 389, N-(3-fluorophenyl)-2-(1H-pyrazol-1-yl)-N-({5-[5-(trifluoromethyl)-1,2,4-oxadiazol-3-yl]pyridin-2-yl}methyl)propanamide] | 1.6 | 0.3
24 | FC(F)(F)c1nc(-c2ccc(CNC3CCc4ncccc4C3)cc2)no1 (racemic) [Example 351, N-({4-[5-(trifluoromethyl)-1,2,4-oxadiazol-3-yl]phenyl}methyl)-5,6,7,8-tetrahydroquinolin-6-amine] | 0.68 | 0.52
25 | C[Si]1(C)CCC(NCc2ccc(-c3noc(C(F)(F)F)n3)cn2)CC1 [Example 436, 1,1-dimethyl-N-({5-[5-(trifluoromethyl)-1,2,4-oxadiazol-3-yl]pyridin-2-yl}methyl)silinan-4-amine] | 4.2 | 1.2
26 | O=C1COC[C@@H](c2nc(-c3ccccn3)no2)N1c1ccc(-c2noc(C(F)(F)F)n2)cc1 [Example 34, (S)-5-(3-(Pyridin-2-yl)-1,2,4-oxadiazol-5-yl)-4-(4-(5-(trifluoromethyl)-1,2,4-oxadiazol-3-yl)phenyl)morpholin-3-one] | 0.28 | 0.064
27 | CN1CC(C(=O)N(Cc2ccc(-c3noc(C(F)(F)F)n3)cn2)c2cccc(F)c2)CCC1=O (racemic) [Example 402, N-(3-fluorophenyl)-1-methyl-6-oxo-N-({5-[5-(trifluoromethyl)-1,2,4-oxadiazol-3-yl]pyridin-2-yl}methyl)piperidine-3-carboxamide] | 2.6 | 0.34
28 | CC1(C)CCCN1C(=O)[C@@H]1CCC(=O)N1c1ccc(-c2noc(C(F)(F)F)n2)c(F)c1 [Example 342, (5S)-5-[(2,2-dimethylpyrrolidin-1-yl)carbonyl]-1-{3-fluoro-4-[5-(trifluoromethyl)-1,2,4-oxadiazol-3-yl]phenyl}pyrrolidin-2-one] | 25 | 45
29 | O=C1COC[C@@H](c2ccccc2)N1c1ccc(-c2noc(C(F)(F)F)n2)cc1F [Example 161, (R)-4-(2-fluoro-4-(5-(trifluoromethyl)-1,2,4-oxadiazol-3-yl)phenyl)-5-phenylmorpholin-3-one] | 2.1 | 0.39
30 | CC(C)(C)OC(=O)[C@@H]1CCC(=O)N1c1ccc(-c2noc(C(F)(F)F)n2)cc1F [Example 125, tert-butyl (S)-1-(2-fluoro-4-(5-(trifluoromethyl)-1,2,4-oxadiazol-3-yl)phenyl)-5-oxopyrrolidine-2-carboxylate] | 6.2 | 0.43
31 | FC(F)(F)c1nc(-c2ccc(CNc3cccnc3)cc2)no1 [Example 383, N-{4-[5-(trifluoromethyl)-1,2,4-oxadiazol-3-yl]benzyl}pyridin-3-amine] | 3.1 | 1.7
32 | O=C1CC(NCc2ccc(-c3noc(C(F)(F)F)n3)cn2)CCN1 (racemic) [Example 437, 4-[({5-[5-(trifluoromethyl)-1,2,4-oxadiazol-3-yl]pyridin-2-yl}methyl)amino]piperidin-2-one] | 5.1 | 5.4

— patent US11066396B2 (priority 2016, dated 2021)
